Data from patent US20130102009A1, “SIRTUIN ACTIVATORS AND ACTIVATION ASSAYS” (priority 2010, published 2013).
Structures can show the parent of a compound that is named as a salt.

biological target: T1, SIRT1(183-664) (Homo sapiens, UniProt Q96EB6); assay: ITC binding of STACs to SIRT1(183-664); conditions: dissociation constant of SRT:SIRT1 complex, read-out: Kx (μM), ITC
T1 construct: the truncated version used for biophysical studies SIRT1(183-664); made in house
T1 sequence (Q96EB6 183-664): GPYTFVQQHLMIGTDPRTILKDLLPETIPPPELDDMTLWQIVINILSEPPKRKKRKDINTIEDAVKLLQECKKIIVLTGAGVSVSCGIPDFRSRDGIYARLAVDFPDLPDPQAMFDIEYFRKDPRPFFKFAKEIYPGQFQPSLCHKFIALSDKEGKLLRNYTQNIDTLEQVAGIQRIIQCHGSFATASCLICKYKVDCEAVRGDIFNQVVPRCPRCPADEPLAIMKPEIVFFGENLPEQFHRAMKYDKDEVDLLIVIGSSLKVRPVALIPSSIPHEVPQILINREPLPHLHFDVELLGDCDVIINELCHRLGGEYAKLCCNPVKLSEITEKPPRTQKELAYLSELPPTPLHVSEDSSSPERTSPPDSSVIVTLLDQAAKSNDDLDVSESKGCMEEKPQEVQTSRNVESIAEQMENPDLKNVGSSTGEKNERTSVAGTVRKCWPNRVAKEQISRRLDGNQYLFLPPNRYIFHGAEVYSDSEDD
Protocol: All peptides were prepared by BioPeptide (San Diego, Calif.) and shown to be at least 95% pure by analytical HPLC analysis. Bovine glutamate dehydrogenase (GDH), α-ketoglutarate, NADH and NAD^+ were from Sigma Chemical Company. Full-length, human SIRT1 and the truncated version used for biophysical studies SIRT1(183-664) were prepared as described previously, and shown to have equivalent kinetic properties (Milne et al. (2007) Nature 450, 712-716). The nicotinamidase PNC1 was prepared as described by Denu and colleagues (Smith et al. (2009) Anal Biochem 394, 101-109). ITC experiments were performed using either a VP-ITC system or iTC200 system (MicroCal) at 26° C. in a buffer composed of 137 mM NaCl, 2.7 mM KCl, 1 mM MgCl2, 2 mM TCEP, 5% (v/v) glycerol and 50 mM HEPES-NaOH, pH 7.3. SIRT1(183-664) was purified and dialyzed against the buffer, centrifuged, and degassed before the experiment. The peptide and compounds were dissolved in the final dialysis buffer and their pH values were adjusted to match that of the protein solution. […] To characterize this interaction using the iTC200 system, 1 mM TAMRA-peptide was injected in 20 aliquots of 2 μL, (except the first injection, which was 0.5 μL) into a 0.202 mL sample cell containing 100 μM STAC. For STACs with poor solubility, the concentrations were adjusted accordingly. […] To characterize the interaction of a STAC with SIRT1(183-664) on the VP-ITC system, 100 μM enzyme was injected in 35 aliquots of 8 μL, (except the first injection, which was 2 μL) into a 1.47 mL sample cell containing 10 μM STAC. […] In all cases, data was corrected for the heat of dilution and fitted using a nonlinear least-squares routine using a single-site binding model with Origin for ITC v7.0383 (Microcal) with the stoichiometry (n), the enthalpy of the reaction (ΔH) and the association constant (Ka) calculated.

Kd [µM]	Compound
0.32	CN(C)Cc1cnc2sc(-c3ccccc3NC(=O)c3cnc4ccccc4n3)nc2c1 [Compound 2, N-(2-(6-((dimethylamino)methyl)thiazolo[5,4-b]pyridin-2-yl)phenyl)quinoxaline-2-carboxamide]
3	Cc1nc(-c2cccnc2)sc1C(=O)Nc1ccccc1-c1cn2c(CN3CC4CC3CN4)csc2n1 (stereo not drawn) [Compound 4, N-(2-(3-(2,5-diazabicyclo[2.2.1]heptan-2-ylmethyl)imidazo[2,1-b]thiazol-6-yl)phenyl)-4-methyl-2-(pyridin-3-yl)thiazole-5-carboxamide]
0.43	CN(C)CCCNc1cc(-c2nc3c(NC(=O)c4ccc(CN5CCNCC5)cc4)cccc3[nH]2)ccn1 [Compound 14, N-(2-(2-(3-(dimethylamino)propylamino)pyridin-4-yl)-1H-benzo[d]imidazol-4-yl)-4-(piperazin-1-ylmethyl)benzamide trihydrochloride]
